Measured values taken from patent publication US10160769B2, “Compositions comprising thienopyrimidine and thienopyridine compounds and methods of use thereof” (The Regents of the University of Michigan, priority 2013, dated 2018).
pIC50: −log10 of the molar value.

Experiments:
menin-MLL interaction = molecular target: T1, menin-MLL interaction (Homo sapiens, UniProt O00255); assay: biochemical
T1 sequence (O00255 1-610): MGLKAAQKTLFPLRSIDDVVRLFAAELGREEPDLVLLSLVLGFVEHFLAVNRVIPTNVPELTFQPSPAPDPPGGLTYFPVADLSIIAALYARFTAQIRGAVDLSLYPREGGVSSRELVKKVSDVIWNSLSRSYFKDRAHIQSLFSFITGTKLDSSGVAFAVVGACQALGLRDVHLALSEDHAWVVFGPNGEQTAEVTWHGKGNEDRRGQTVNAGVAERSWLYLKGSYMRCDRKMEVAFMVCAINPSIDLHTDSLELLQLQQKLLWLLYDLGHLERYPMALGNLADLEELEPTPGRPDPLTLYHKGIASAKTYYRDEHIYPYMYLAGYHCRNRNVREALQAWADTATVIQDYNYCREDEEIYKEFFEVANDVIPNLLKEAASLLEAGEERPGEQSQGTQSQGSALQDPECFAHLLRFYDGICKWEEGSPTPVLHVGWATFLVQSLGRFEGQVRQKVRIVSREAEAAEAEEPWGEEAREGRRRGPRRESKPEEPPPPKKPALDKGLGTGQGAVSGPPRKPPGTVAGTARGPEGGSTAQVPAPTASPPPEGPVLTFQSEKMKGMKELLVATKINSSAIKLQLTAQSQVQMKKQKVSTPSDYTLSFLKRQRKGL
Text: Fluorescence Polarization Assay.
Compounds that inhibit the interaction decrease the fluorescence anisotropy which is being used as a read-out for compound screening and for IC50 determination.

[1] = molecular target: T2, menin-MLL-AF9 interaction (Homo sapiens, UniProt O00255); assay: Co-Immunoprecipitation (co-IP) in HEK293 cells transfected with MLL-AF9; assay type: cell-based; details: FIG. 2
T2 construct: performed in HEK293 cells transfected with MLL-AF9; endogenous in cells; host or cells: HEK293
T2 sequence (O00255 1-610): T1 sequence (O00255 1-610)

menin = molecular target: T3, menin (Homo sapiens, UniProt O00255); assay: Isothermal Titration calorimetry (ITC); assay type: binding; details: FIG. 1
T3 sequence (O00255 1-610): T1 sequence (O00255 1-610)

[2] = tested on: Hoxa9 and Meis1 expression in MLL-AF9 BMC; assay: qRT-PCR of Hoxa9 and Meis1; assay type: cell-based, mouse; details: FIG. 10
[3] = tested on: MLL-AF9 transformed mouse bone marrow cells (BMC); assay: MTT cell viability assay in transformed BMC; assay type: cell-based; details: 72 h incubation, E2H-HLF transformed BMC as negative control, FIG. 3
MLL-AF9 transformed BMC = assay: Growth curves experiments in transformed BMC; assay type: cell-based, mouse; details: MLL-AF9 BMC vs Hoxa9/Meis1 transformed BMC (negative control), FIG. 5
[4] = tested on: human MLL leukemia cell lines; assay: Growth / MTT cell viability in human MLL leukemia cell lines; assay type: cell-based
MLL-AF9 BMC [5] = assay: Differentiation (CD11b expression, cell morphology); assay type: cell-based, mouse; details: change in CD11b expression and cell morphology, FIGS. 8, 9
[6] = tested on: non-MLL leukemia cell lines; assay: Growth in non-MLL leukemia cell lines; assay type: cell-based; details: FIG. 13B
MLL-AF9 BMC [7] = assay: Colony formation assay; assay type: cell-based, mouse; details: FIG. 7
[8] = tested on: mice model of MLL-AF9 leukemia; assay: In vivo efficacy in mice model of MLL-AF9 leukemia; details: once daily i.p. injections of 75 mg/kg, FIG. 18

Row | pIC50 (menin-MLL interaction) | Compound | inhibition of the menin-MLL-AF9 interaction [1] | expression of downstream targets of MLL fusion proteins: Hoxa9 and Meis1 [2] | proliferation of MLL leukemia cells [3] | also measured
1 | 5.70 to 6.30 | CC(F)(F)Cc1cc2c(NC3CCN(Cc4ccccc4)CC3)ncnc2s1 [Compound 155] | – | – | – | –
2 | 6.29 to 7.00 | CC1(C)CN=C(N2C[C@@H]3C[C@H]2CN3c2ncnc3sc(CC(F)(F)F)cc23)S1 (racemic) [Compound 14] | – | – | – | –
3 | – | CC1(C)CN=C(N2CCN(c3ncnc4sc(CC(F)(F)F)cc34)CC2)S1 [Compound 1, 4-(4-(5,5-dimethyl-4,5-dihydrothiazol-2-yl)piperazin-1-yl)-6-(2,2,2-trifluoroethyl)thieno[2,3-d]pyrimidine] | inhibition of the menin-MLL-AF9 interaction | downregulate expression | selectively inhibit proliferation | binding to menin (menin): direct binding
4 | – | N#Cc1cc2cc(CN3CCC(Nc4ncnc5sc(CC(F)(F)F)cc45)CC3)ccc2[nH]1 [Compound 175, 5-((4-((6-(2,2,2-trifluoroethyl)thieno[2,3-d]pyrimidin-4-yl)amino)piperidin-1-yl)methyl)-1H-indole-2-carbonitrile] | inhibition of the menin-MLL-AF9 interaction | downregulate expression | – | selectivity towards MLL fusion protein transformed cells (MLL-AF9 transformed BMC): great selectivity; growth of human MLL leukemia cell lines ([4]; FIG. 13A): selectively inhibits growth; differentiation (MLL-AF9 BMC [5]): Differentiation induced; effect in non-MLL leukemia cell lines [6]: limited effect
5 | – | FC(F)(F)Cc1cc2c(NC3CCN(Cc4ccccc4)CC3)ncnc2s1 [Compound 108] | inhibition of the menin-MLL-AF9 interaction | downregulate expression | selectively inhibit proliferation | morphology of colonies (MLL-AF9 BMC [7]): changes morphology of colonies; colony number (MLL-AF9 BMC [7]; each round 7 days): reduces colony number; growth of human MLL leukemia cell lines ([4]; MTT, 3 days of incubation, FIG. 11): selectively inhibit growth; survival of leukemic mice [8]: Increase in survival
